Patent US20110152089A1, “HERBICIDAL COMPOSITIONS COMPRISING FLUFENACET” (Bayer CropScience AG, priority 2009, published 2011)

Tests used:
STEME [1] = assay: Activity with different soil types, greenhouse (Table 5); type: in vivo, Stellaria media; settings: g of AS/ha: (A) 90, (B) 300, (C) 140, (A)+(B)+(C) 90 + 300 + 140; for activity STEME IU soil: IU soil (loamy silt standard field soil); for activity STEME IU/EC73 soil: IU/EC73 soil (heavy soil, higher organic substance)
Method: (§1) In the standard design of the test, seeds of various broad-leaved weed and weed grass biotypes (origins) were sown in a 8-13 cm diameter pot filled with natural soil of a standard field soil (loamy silt; non-sterile) and covered with a covering soil layer of about 1 cm. The pots were then cultivated in a greenhouse (12-16 h of light, temperature day 20-22° C., night 15-18° C.) until the time of application. The pots were treated on a laboratory track sprayer with spray liquors comprising the compositions according to the invention, mixtures of the prior art or components used individually. Application of the active compounds or active compound combinations formulated as WG, WP, EC or otherwise was carried out at the appropriate growth stages of the plants. The application rate for the spray application was 100-600 l of water/ha. After the treatment, the plants were returned to the greenhouses.
(§2) About 3 weeks after the application, the soil action or/and foliar action was assessed visually according to a scale of 0-100% in comparison to an untreated comparative group: 0%=no noticeable effect compared to the untreated comparative group; 100%=full effect compared to the untreated comparative group.
(§3) (notes: the term “seeds” also includes vegetative propagation forms such as, for example, rhizome pieces; abbreviations used: h light=hours of illumination, g of AS/ha=gram of active substance per hectare, l/ha=liter per hectare, S=sensitive, R=resistant) • 1. Pre-emergence action against weeds: seeds of various broad-leaved weed and weed grass biotypes (origins) were sown in a 8-13 cm diameter pot filled with natural soil of a standard field soil (loamy silt; non-sterile) and covered with a covering soil layer of about 1 cm. The pots were then cultivated in a greenhouse (12-16 h of light, temperature day 20-22° C., night 15-18° C.) until the time of application. The pots were treated at the BBCH stage 00-10 of the seeds/plants on a laboratory track sprayer with spray liquors comprising the compositions according to the invention, mixtures or components used individually, as WG, WP, EC or other formulations. The application rate for the spray application was 100-600 l of water/ha. After the treatment, the plants were returned to the greenhouses and, when required, treated with fertilizer and watered. • 2. Post-emergence action against weeds: seeds of various broad-leaved weed and weed grass biotypes (origins) were sown in a 8-13 cm diameter pot filled with natural soil of a standard field soil (loamy silt; non-sterile) and covered with a covering soil layer of about 1 cm. The pots were then cultivated in a greenhouse (12-16 h of light, temperature day 20-22° C., night 15-18° C.) until the time of application. The pots were treated at various BBCH stages between 11-25 of the seeds/plants, i.e. generally between two to three weeks after the start of the cultivation, on a laboratory track sprayer with spray liquors comprising the compositions according to the invention, mixtures or components used individually, as WG, WP, EC or other formulations. The application rate for the spray application was 100-600 l of water/ha. After the treatment, the plants were returned to the greenhouses and, when required, treated with fertilizer and watered. • 3. Pre-emergence action against weeds with and without incorporation of active compound: seeds of various broad-leaved weed and weed grass biotypes (origins) were sown in a 8-13 cm diameter pot filled with natural soil of a standard field soil (loamy silt; non-sterile). […]

STEME [2] = assay: PE soil application vs incorporation into the soil, greenhouse (Table 1); type: in vivo, Stellaria media; settings: g of AS/ha: (A) 90, (B) 300, (C) 70, (A)+(B)+(C) 90 + 300 + 70, visual, about 3 weeks after application
Method: as §1, §2, §3

LOLSS = assay: Resistant biotypes, PE application, greenhouse (Table 6); type: in vivo, Lolium species; settings: g of AS/ha: (A) 90, (B) 300, (C) 140, (A)+(B)+(C) 120 + 600 + 140, iodosulfuron 10; for activity LOLSS resistant: resistant (EMR) biotype; for activity LOLSS sensitive: sensitive biotype
Method: as §1, §2
(§4) (notes: the term “seeds” also includes vegetative propagation forms such as, for example, rhizome pieces; abbreviations used: h light=hours of illumination, g of AS/ha=gram of active substance per hectare, l/ha=liter per hectare, S=sensitive, R=resistant) • 1. Pre-emergence action against weeds: seeds of various broad-leaved weed and weed grass biotypes (origins) were sown in a 8-13 cm diameter pot filled with natural soil of a standard field soil (loamy silt; non-sterile) and covered with a covering soil layer of about 1 cm. The pots were then cultivated in a greenhouse (12-16 h of light, temperature day 20-22° C., night 15-18° C.) until the time of application. The pots were treated at the BBCH stage 00-10 of the seeds/plants on a laboratory track sprayer with spray liquors comprising the compositions according to the invention, mixtures or components used individually, as WG, WP, EC or other formulations. The application rate for the spray application was 100-600 l of water/ha. After the treatment, the plants were returned to the greenhouses and, when required, treated with fertilizer and watered. • 2. Post-emergence action against weeds: seeds of various broad-leaved weed and weed grass biotypes (origins) were sown in a 8-13 cm diameter pot filled with natural soil of a standard field soil (loamy silt; non-sterile) and covered with a covering soil layer of about 1 cm. The pots were then cultivated in a greenhouse (12-16 h of light, temperature day 20-22° C., night 15-18° C.) until the time of application. […]

HORVS [3] = assay: Different soil pH, PE application, crop selectivity, greenhouse (Table 8); type: in vivo, Hordeum vulgare, summer barley; settings: for activity HORVS pH 7.4 (crop plant): soil pH 7.4, g of AS/ha: (A) 90, (B) 300, (C) 140, (A)+(B)+(C) 90 + 300 + 140; for activity HORVS pH 8.4 (crop plant): soil pH 8.4, g of AS/ha: (A) 90, (B) 300, (C) 140, (A)+(B)+(C) 90 + 300 + 140
Method: as §1, §2, §3

STEME [4] = assay: Resistant biotypes, PE application, greenhouse (Table 6); type: in vivo, Stellaria media; settings: g of AS/ha: (A) 90, (B) 300, (C) 140, (A)+(B)+(C) 120 + 600 + 140, iodosulfuron 10; for activity STEME resistant: resistant biotype; for activity STEME sensitive: sensitive biotype
Method: as §1, §2, §3

HORVS [5] = assay: PE application vs pre-sowing application, crop selectivity, greenhouse (Table 3); type: in vivo, Hordeum vulgare, summer barley; settings: g of AS/ha: (A) 90, (B) 300, (C) 140, (A)+(B)+(C) 90 + 300 + 140
Method: as §1, §2, §3

AVEFA = assay: PE application with different irrigation, greenhouse (Table 4); type: in vivo, Avena fatua; settings: g of AS/ha: (A) 90, (B) 300, (C) 140, (A)+(B)+(C) 90 + 300 + 140
Method: as §1, §2, §3

LOLPE = assay: PE application vs pre-sowing application, greenhouse (Table 3); type: in vivo, Lolium perenne; settings: g of AS/ha: (A) 90, (B) 300, (C) 140, (A)+(B)+(C) 90 + 300 + 140
Method: as §1, §2, §4

TRZAW = assay: Different soil pH, PE application, crop selectivity, greenhouse (Table 8); type: in vivo, Triticum aestivum, winter wheat; settings: for activity TRZAW pH 7.4 (crop plant): soil pH 7.4, g of AS/ha: (A) 90, (B) 300, (C) 140, (A)+(B)+(C) 90 + 300 + 140; for activity TRZAW pH 8.4 (crop plant): soil pH 8.4, g of AS/ha: (A) 90, (B) 300, (C) 140, (A)+(B)+(C) 90 + 300 + 140
Method: as §1, §2, §3

POAAN = assay: PO application, greenhouse (Table 2); type: in vivo, Poa annua; settings: g of AS/ha: (A) 120, (B) 1200, (C) 140, (A)+(B)+(C) 120 + 1200 + 140, visual, about 3 weeks after application
Method: as §1, §2
(notes: the term “seeds” also includes vegetative propagation forms such as, for example, rhizome pieces; abbreviations used: h light=hours of illumination, g of AS/ha=gram of active substance per hectare, l/ha=liter per hectare, S=sensitive, R=resistant) • 1. Pre-emergence action against weeds: seeds of various broad-leaved weed and weed grass biotypes (origins) were sown in a 8-13 cm diameter pot filled with natural soil of a standard field soil (loamy silt; non-sterile) and covered with a covering soil layer of about 1 cm. The pots were then cultivated in a greenhouse (12-16 h of light, temperature day 20-22° C., night 15-18° C.) until the time of application. […]

HORVS [6] = assay: PE application with different irrigation, crop selectivity, greenhouse (Table 4); type: in vivo, Hordeum vulgare, summer barley; settings: g of AS/ha: (A) 90, (B) 300, (C) 140, (A)+(B)+(C) 90 + 300 + 140
Method: as §1, §2, §3

VIOAR = assay: Activity with different soil types, greenhouse (Table 5); type: in vivo, Viola arvensis; settings: g of AS/ha: (A) 90, (B) 300, (C) 140, (A)+(B)+(C) 90 + 300 + 140; for activity VIOAR IU soil: IU soil (loamy silt standard field soil); for activity V18 VIOAR IU/EC73 soil: IU/EC73 soil (heavy soil, higher organic substance)
Method: as §1, §2, §3

MATCH = assay: Different soil pH, PE application, greenhouse (Table 8); type: in vivo, Matricaria chamomilla; settings: for activity MATCH pH 7.4: soil pH 7.4, g of AS/ha: (A) 90, (B) 300, (C) 140, (A)+(B)+(C) 90 + 300 + 140; for activity MATCH pH 8.4: soil pH 8.4, g of AS/ha: (A) 90, (B) 300, (C) 140, (A)+(B)+(C) 90 + 300 + 140
Method: as §1, §2, §3

HORVS [7] = assay: Activity with different soil types, crop selectivity, greenhouse (Table 5); type: in vivo, Hordeum vulgare, summer barley; settings: g of AS/ha: (A) 90, (B) 300, (C) 140, (A)+(B)+(C) 90 + 300 + 140; for activity HORVS IU soil (crop plant): IU soil (loamy silt standard field soil); for activity HORVS IU/EC73 soil (crop plant): IU/EC73 soil (heavy soil, higher organic substance)
Method: as §1, §2, §3

[8] = application 7 days prior to sowing

Row | SMILES | activity STEME IU soil (STEME [1]) [%] | activity STEME IU/EC73 soil (STEME [1]) [%] | activity STEME (STEME [2]; PE application) [%] | activity STEME (STEME [2]; incorporation into the soil) [%] | activity LOLSS resistant (LOLSS) [%] | activity LOLSS sensitive (LOLSS) [%] | activity HORVS pH 7.4 (crop plant) (HORVS [3]) [%] | activity HORVS pH 8.4 (crop plant) (HORVS [3]) [%] | activity STEME resistant (STEME [4]) [%] | activity STEME sensitive (STEME [4]) [%] | activity HORVS (crop plant) (HORVS [5]; PE application) [%] | activity HORVS (crop plant) (HORVS [5]; [8]) [%] | activity AVEFA (AVEFA; irrigation from above) [%] | activity AVEFA (AVEFA; irrigation from below) [%] | activity LOLPE (LOLPE; PE application) [%] | activity LOLPE (LOLPE; [8]) [%] | activity TRZAW pH 7.4 (crop plant) (TRZAW) [%] | activity TRZAW pH 8.4 (crop plant) (TRZAW) [%] | activity POAAN (POAAN) [%] | activity HORVS (crop plant) (HORVS [6]; irrigation from above) [%] | also measured
1 | CSc1nnc(C(C)(C)C)c(=O)n1N [(C) metribuzin, 4-amino-6-(1,1-dimethyl-ethyl)-3-(methylthio)-1,2,4-triazin-5-(4H)-one] | 75 | 5 | 75 | 0 | 70 | 70 | 40 | 50 | 98 | 100 | 30 | 20 | 30 | 30 | 20 | 80 | 70 | 80 | 79 | 80 | activity HORVS (crop plant) (HORVS [6]; irrigation from below): 10%; activity VIOAR IU soil (VIOAR): 50%; activity V18 VIOAR IU/EC73 soil (VIOAR): 0%; activity MATCH pH 7.4 (MATCH): 100%; activity MATCH pH 8.4 (MATCH): 98%; activity HORVS IU soil (crop plant) (HORVS [7]): 0%; activity HORVS IU/EC73 soil (crop plant) (HORVS [7]): 0%
2 | CCCN(CCC)c1c([N+](=O)[O-])cc(C(F)(F)F)cc1[N+](=O)[O-] [(B) trifluralin, 2,6-dinitro-N,N-dipropyl-4-(trifluoromethyl)benzenamine] | 50 | 5 | 10 | 70 | 83 | 98 | 20 | 10 | 20 | 20 | 0 | 20 | 25 | 38 | 90 | 0 | 0 | 0 | 40 | 90 | activity HORVS (crop plant) (HORVS [6]; irrigation from below): 60%; activity VIOAR IU soil (VIOAR): 77%; activity V18 VIOAR IU/EC73 soil (VIOAR): 0%; activity MATCH pH 7.4 (MATCH): 0%; activity MATCH pH 8.4 (MATCH): 0%; activity HORVS IU soil (crop plant) (HORVS [7]): 0%; activity HORVS IU/EC73 soil (crop plant) (HORVS [7]): 0%
